Molecules are shown by their SMILES. Where two headings read alike, the source gives them in different places.

The test system of one data set is CRC119 tumor cells. In words: Flow-based cytotoxicity assay (annexin V), CRC119. Type of data set: cell-based. The conditions noted are these: 3 days, 0.2-20 μM. The method, then:
(§1) After 3 days incubation, all cells were harvested with 0.05% trypsin/EDTA and spun down by centrifugation. Cells were labeled with biotin-conjugated Annexin V, and then stained with 7-AAD and Streptavidin-APC. Samples were acquired by FACSCalibur machine (BD Bioscience) and analyzed with CellQuest software. Cells were analyzed for expression of Annexin V as a marker of apoptosis.
(§2) Annexin V may be used as a marker for apoptosis and other forms of cell death. […] After 3 days of incubation, all cells were harvested with 0.05% trypsin/EDTA, labeled with biotin-conjugated Annexin V, and then stained with 7-AAD and streptavidin-APC. Samples were acquired by FACSCalibur, and percentages of annexin V-positive cells were analyzed and plotted as shown in FIG. 11. Cells were analyzed for expression of Annexin V as a marker of apoptosis.

A short description of the next data set: in vivo. The conditions noted are these: NOD/SCID, mouse, po, 200 mg/kg. As to the method:
Blood samples were obtained from vena cava following euthanasia by ketamin injection at predose and at 0.25, 0.5, 0.75, 1, 1.5, 4, 8, 12, 24 hr after drug administration. Blood samples were put into eppendorf tubes containing 10 μL of heparin (1000 U/mL), centrifuged at 1,200 g for 10 min. Plasma were collected and frozen at −20° C. until HPLC analysis.
The Calibration curve was linear from 0.2 ng/mL (lower limit of quantitation, LLOQ) to 300 ng/mL.
Blood samples were obtained from vena cava at predose and at 0.25, 0.5, 0.75, 1, 1.5, 4, 8, 12, 24 hr after drug administration. Plasma was collected by the centrifugation (1,200 g, 10 min) of blood with heparin (100 U/mL).

The next data set has as its system CaCO2 cells. The data set is described as follows: MTT assay, CaCO2. Type of data set: cell-based. The conditions noted are these: for IC50: Homo sapiens, Caco-2, 72 h. As to the method: AsPC-1 tumor cells were cultured with T cells at a 1:5 ratio for 7 days in the presence of MEDI-565 or Cont BiTE (100 ng/mL). On day 7, floating cells were discarded and only adherent AsPC-1 cells were harvested with 0.05% trypsin/EDTA and washed with PBS three times. 1×10^4 AsPC-1 tumor cells were added to each well of 96 well flat bottom plates in 200 μL of complete RPMI1640 medium. The cells were allowed to adhere to the plates overnight at 37° C. (day 0) and were further incubated for 1, 2, 4 or 7 days. 20 μL of 10×MTT (3-[4,5-dimethylthiazol-2-yl]-2,5-diphenyl-tetrazolium bromide, 5 mg/mL) solution was added to each well, and incubated at 37° C. for 2 hr. The adherent cells were lysed with 150 μL of dimethyl sulfoxide (DMSO) and the optical density (OD) at 550 nm was measured.
Colorectal cancer cell lines were incubated in 96-well flat-bottomed plates at 5,000 cells per well in 200 μL of complete RPMI1640 medium. The cells were allowed to adhere to the plates overnight at 37° C. (day 0). […] Then 20 μL of 10×MTT solution was added to each well and incubated at 37° C. for 2 hr. The adherent cells were lysed with 150 μL of DMSO, and then optical density (OD) at 562 nm was measured. DMSO or culture medium was used as a control.
MTT assay was performed at each time point.
An MTT assay was performed after 72 hr incubation. After cell lysis with DMSO, the optical density (OD) at 562 nm was measured.

A further data set has as its system β-catenin. The data set is described as follows: Western blot of cytosolic β-catenin in colorectal cancer cells. Type of data set: cell-based. The method, then: CRC explants and colorectal cancer cell lines were cultured in 6-well plates. […] After washing cells with PBS three times, hypotonic lysis buffer consist of 10 mM Tris-HCl, pH7.4 and 0.2 mM MgCl2, supplemented with 1× Halt Protease and Phosphatase Inhibitor Cocktail (Thermo Scientific Pierce Protein Research Products, Rockford, Ill.) were applied to make cell lyates for Western Blot.
After washing cells with PBS, cell lysates were made with hypotonic lysis buffer.
Background: In western blotting, separated proteins are transferred to a membrane and probed.

The test system of data set [1] is peripheral blood mononuclear cells (PBMCs). Type of data set: cell-based. The following applies: human, 3 days. The method, then: as §1, §2
In a further data set the test system is HCT116 cells. The data set is described as follows: Flow-based cytotoxicity assay (annexin V), HCT116. It counts as cell-based. The conditions noted are these: 3 days, 0.2-20 μM. The method, then:
as §1, §2

For another data set, the target named is Frizzled1-GFP (Rattus norvegicus, UniProt Q08463). In words: Image-based Frizzled1-GFP internalization assay (primary screening assay) in Fzd1GFP-U2OS cells. The conditions noted are these: 6 hr, 0.47-7.5 μM tested. It counts as cell-based. As to the method:
To obtain a Frizzled1-GFP stable cell line (Fzd1GFP-U2OS), U2OS cells were transfected with pCS2ratFrizzled1-GFP and pLKO.1 (10:1 ratio by weight), using the Nucleofection transfection protocol from Amaxa, and stable receptor expressing clones were selected using 1.5 μg/mL puromycin in the culture medium. For generating TOPFlash stable cell lines, HEK293 cells were transfected with p8xTOPFlash, the Renilla luciferase plasmid, and pLKO.1 at a ratio by weight of 10:3:1 and stable clones selected using 1 μg/mL puromycin in the growth medium. pLKO.1 was used to confer puromycin resistance to the stable clones.
The plates were incubated overnight at 37° C. in 5% CO2. […]
To measure the number of the internalized vesicles per cell, cytosol was carefully traced to exclude cell membrane. […] The number of internalized vesicles per cell was counted by the Metamorph software. More than 30 cells per sample were analyzed to obtain statistical significance. […]
To determine the time-course of internalization for Frizzled1-GFP receptors, the accumulation of cytosolic puncta/vesicles was measured (FIG. 4A-4E). Internalization was assessed by counting the number of Frizzled1-GFP containing vesicles in the cytosol using the computer program Metamorph, and the results are presented in the graph for the given times (0 hr, n=51 cells; 1 hr, n=69; 2 hr, n=32; 4 hr, n=55, and 6 hr, n=61). […]

Chain of Frizzled1-GFP (Q08463 69-641): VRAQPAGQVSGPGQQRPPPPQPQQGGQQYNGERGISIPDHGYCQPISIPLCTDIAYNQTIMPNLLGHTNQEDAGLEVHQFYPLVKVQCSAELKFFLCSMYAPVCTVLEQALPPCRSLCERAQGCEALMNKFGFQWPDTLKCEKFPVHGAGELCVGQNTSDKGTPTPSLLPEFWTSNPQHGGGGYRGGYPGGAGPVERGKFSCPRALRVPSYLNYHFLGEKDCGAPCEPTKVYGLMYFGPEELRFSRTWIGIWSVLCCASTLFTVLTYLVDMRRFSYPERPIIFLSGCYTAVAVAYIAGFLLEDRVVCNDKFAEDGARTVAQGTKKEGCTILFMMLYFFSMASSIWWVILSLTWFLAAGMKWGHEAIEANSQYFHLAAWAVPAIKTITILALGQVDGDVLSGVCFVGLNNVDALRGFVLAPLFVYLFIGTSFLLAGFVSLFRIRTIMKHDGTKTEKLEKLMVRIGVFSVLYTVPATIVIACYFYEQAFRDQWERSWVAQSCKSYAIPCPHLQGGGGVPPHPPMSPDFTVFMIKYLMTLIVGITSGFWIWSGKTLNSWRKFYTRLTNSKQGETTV

`O=C(Nc1ccc([N+](=O)[O-])cc1Cl)c1cc(Cl)ccc1O` [niclosamide]: the “concentration with steep increase of annexin V-positive cells” value in the data set on CRC119 tumor cells worked out at 1 µM. In addition, in the data set “in vivo”, the highest level (Cmax) was 894 ng/mL, the “Elimination rate (z-lambda)” value turned out to be 0.217 h⁻¹, the Tmax came out at 15 min and the concentration at 1.5 hr stood at 77.6 ng/mL. Besides, the half-life in “in vivo” is 192 min. In addition, the “cytotoxic effect compared with 10 μM oxaliplatin” value with CaCO2 cells (2 μM, 72 hr) is reported as “stronger cytotoxic effect”. Besides, the “proliferation (MTT, OD 562 nm)” value in the data set on CaCO2 cells (0.4, 2, 10 μM, 72 hr) is listed as “less proliferation”. In addition, in the data set on CaCO2 cells (0.4, 2, 10 μM, 24-96 hr), the “% proliferation over time” value was “sensitive”. The IC50 in the data set on CaCO2 cells (read-out: IC50 of niclosamide (MTT)) was found to be 1000 nM. Besides, the IC50 in the data set on CaCO2 cells (read-out: IC50 of niclosamide (MTT) with oxaliplatin) stood at 500 nM. Also, the “cytosolic β-catenin expression” value in the data set on β-catenin (CRC057 and HCT116, 1, 5, 10 μM, 18 hr) was “downregulated”. Also, the “cytosolic β-catenin expression” value in the data set with β-catenin (HT29 cells) is recorded as “milder change”. Moreover, the “doses at which apoptosis was shown (annexin V)” value in data set [1] lay in the range of 10 to 20 µM. Further, the “concentration with steep increase of annexin V-positive cells” value in the data set on HCT116 cells came to 0.2 µM. Besides, the “concentration with significant increase in the number of internalized receptors” value at Frizzled1-GFP lay within 1 to 2 µM.

One may read the Cmax as the maximum level reached in the sampled fluid or tissue. What is called Tmax is the time from dosing to the highest level. A word on the half-life: it is how long it takes for the measured level to halve. A higher half-life goes with slow decline. In general, IC50 refers to the point on the concentration scale where inhibition reaches its midpoint.
